Read-outs that look alike come from different tables or passages of the source.
Experiments:
[1] = biological target: T1, PDGF-Ra (Homo sapiens, UniProt P16234); test: Inhibitory activity against PDGF-Ra phosphorylation by PDGF-AA stimulation using G292; assay type: cell-based; conditions: for IC50: > means inhibition at indicated concentration not more than 50%, < and << not less than 50%, read-out: PDGF (E) IC50; for inhibition at 0.1 µM: G292, figure in parentheses in >100( ), at 100 nM, read-out: PDGF (E) inhibition (%) at 100 nM
T1 construct: host or cells: G-292 human osteosarcoma cells
In short: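 G-292 human osteosarcoma cells in 0.1% FBS medium overnight, given compound for 1 hr at 37° C, then PDGF-AA 50 ng/ml for 5 min. Lysates captured on anti-phosphotyrosine (PY-20) plates and probed with anti-PDGF-Ra plus HRP secondary; absorbance at 450 nm.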

[2] = biological target: T2, c-kit (Homo sapiens, UniProt P10721); test: Inhibitory activity against c-kit autophosphorylation (MO7e cells, h-SCF); assay type: cell-based; conditions: for IC50: MO7e cells, read-out: c-kit IC50; for inhibition at 1 µM: Mo7e, figure in parentheses in −( ), at 1000 nM
T2 construct: MO7e (human megakaryocytic leukemia cell line) which had been arrested for 20 hr; endogenous in cells; host or cells: MO7e human megakaryocytic leukemia cell line
In short: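 Ligand-induced c-kit tyrosine phosphorylation is measured in MO7e cells that were quiesced 20 hr and preincubated with compound for 1 hr prior to a 5 min pulse of 50 ng/ml human SCF. Phospho-c-kit is detected by anti-phosphotyrosine capture ELISA, A450.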

T1 sequence (P16234 24-1089): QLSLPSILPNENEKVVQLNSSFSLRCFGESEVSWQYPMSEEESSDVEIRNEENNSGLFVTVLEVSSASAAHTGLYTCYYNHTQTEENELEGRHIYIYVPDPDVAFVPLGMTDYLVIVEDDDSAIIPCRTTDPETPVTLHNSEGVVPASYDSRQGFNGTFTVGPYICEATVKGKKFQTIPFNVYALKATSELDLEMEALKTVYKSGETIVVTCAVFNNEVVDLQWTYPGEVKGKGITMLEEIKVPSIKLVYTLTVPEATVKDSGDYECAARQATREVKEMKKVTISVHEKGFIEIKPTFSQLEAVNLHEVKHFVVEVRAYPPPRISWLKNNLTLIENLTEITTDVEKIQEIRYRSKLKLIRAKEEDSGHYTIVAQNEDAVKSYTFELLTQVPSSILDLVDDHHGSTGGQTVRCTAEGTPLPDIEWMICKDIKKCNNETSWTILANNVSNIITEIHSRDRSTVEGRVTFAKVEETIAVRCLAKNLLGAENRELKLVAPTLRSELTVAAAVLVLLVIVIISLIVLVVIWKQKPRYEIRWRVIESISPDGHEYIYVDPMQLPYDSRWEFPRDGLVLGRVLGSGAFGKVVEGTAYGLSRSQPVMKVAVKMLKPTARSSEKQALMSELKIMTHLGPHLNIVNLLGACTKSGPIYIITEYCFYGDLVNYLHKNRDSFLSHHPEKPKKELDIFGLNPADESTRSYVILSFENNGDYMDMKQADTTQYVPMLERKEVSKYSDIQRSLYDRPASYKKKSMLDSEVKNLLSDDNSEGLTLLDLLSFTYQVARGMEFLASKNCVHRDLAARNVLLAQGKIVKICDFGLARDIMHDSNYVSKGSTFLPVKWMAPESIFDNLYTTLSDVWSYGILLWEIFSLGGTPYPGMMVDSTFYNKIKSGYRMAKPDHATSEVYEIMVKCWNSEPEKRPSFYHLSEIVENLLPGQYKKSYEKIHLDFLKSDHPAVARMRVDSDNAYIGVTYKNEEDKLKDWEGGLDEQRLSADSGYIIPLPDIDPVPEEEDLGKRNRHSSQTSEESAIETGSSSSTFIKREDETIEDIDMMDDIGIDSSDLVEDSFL
T2 sequence (P10721 26-976): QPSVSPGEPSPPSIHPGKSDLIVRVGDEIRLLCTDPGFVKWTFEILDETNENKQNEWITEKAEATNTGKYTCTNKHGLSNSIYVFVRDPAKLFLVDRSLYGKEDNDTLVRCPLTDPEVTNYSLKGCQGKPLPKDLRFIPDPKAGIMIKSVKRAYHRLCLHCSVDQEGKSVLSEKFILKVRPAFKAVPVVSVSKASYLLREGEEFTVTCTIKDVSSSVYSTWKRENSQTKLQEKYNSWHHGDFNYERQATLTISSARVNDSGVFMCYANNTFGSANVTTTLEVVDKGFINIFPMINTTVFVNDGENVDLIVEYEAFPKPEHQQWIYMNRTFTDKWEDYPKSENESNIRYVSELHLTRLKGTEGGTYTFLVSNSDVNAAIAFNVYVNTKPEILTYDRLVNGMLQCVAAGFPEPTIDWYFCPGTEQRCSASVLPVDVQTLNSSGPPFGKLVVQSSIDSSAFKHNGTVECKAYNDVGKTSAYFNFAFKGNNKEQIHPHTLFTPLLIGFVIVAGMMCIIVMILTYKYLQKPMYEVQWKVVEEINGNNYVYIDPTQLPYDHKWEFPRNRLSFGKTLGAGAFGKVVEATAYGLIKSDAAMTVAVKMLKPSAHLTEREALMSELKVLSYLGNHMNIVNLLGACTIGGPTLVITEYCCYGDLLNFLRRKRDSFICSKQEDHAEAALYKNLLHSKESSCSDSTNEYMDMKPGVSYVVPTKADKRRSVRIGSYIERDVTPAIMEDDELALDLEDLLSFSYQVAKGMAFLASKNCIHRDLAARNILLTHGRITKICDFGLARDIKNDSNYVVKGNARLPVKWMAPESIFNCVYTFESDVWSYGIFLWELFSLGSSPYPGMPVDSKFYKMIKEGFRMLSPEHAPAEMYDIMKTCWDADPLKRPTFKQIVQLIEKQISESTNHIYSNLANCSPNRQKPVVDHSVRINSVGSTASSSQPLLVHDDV

CCN(CCNC(=O)Nc1ccc(Oc2ccnc3cc(OC)c(OC)cc23)c(C)c1C)c1cccc(C)c1 [Example 663, N-{4-[(6,7-Dimethoxy-4-quinolyl)oxy]-2,3-dimethylphenyl}-N′-[2-(ethyl-3-methylanilino)ethyl]urea]
IC50 [1]: < 0.01 µM
IC50 ([2]; 50 ng/ml h-SCF): 0.202 µM

COc1cc2nccc(Oc3ccc(NCCOc4c(F)cccc4F)cc3C)c2cc1OC [Example 883, N-[2-(2,6-Difluorophenoxy)ethyl]-N-{4-[(6,7-dimethoxy-4-quinolyl)oxy]-3-methylphenyl}amine]
IC50 [1]: > 0.03 µM
PDGF (E) inhibition (%), figure in parentheses in >30( ) ([1]; figure in parentheses in >30( ), concentration not defined in key (presumably 30 nM)): >30(30) %
IC50 ([2]; h-SCF stimulation): 0.521 µM

COc1cc2nccc(Oc3ccc(NC(=S)NC(=O)CCCc4ccccc4)cc3Cl)c2cc1OC [Example 726, N-{3-Chloro-4-[(6,7-dimethoxy-4-quinolyl)oxy]phenyl}-N′-(4-phenylbutanoyl)thiourea]
IC50 [1]: 0.037 µM
IC50 ([2]; 50 ng/ml h-SCF): 0.624 µM

CCCC1CCC(C(=O)NC(=S)Nc2ccc(Oc3ccnc4cc(OC)c(OC)cc34)c(Cl)c2)CC1 (centres unmarked) [Example 1196, N-{3-Chloro-4-[(6,7-dimethoxy-4-quinolyl)oxy]phenyl}-N′-[(4-propylcyclohexyl)carbonyl]thiourea]
IC50 [1]: > 0.1 µM
IC50 ([2]; h-SCF stimulation): 0.7 µM

COc1cc2nccc(Oc3ccc(NC(=O)NC4CCN(Cc5ccccc5)C4)c(C)c3C)c2cc1OC (centres unmarked) [Example 604, N-{4-[(6,7-Dimethoxy-4-quinolyl)oxy]-2,3-dimethylphenyl}-N′-[4-(N-benzyl)piperidinyl]urea]
IC50 [1]: 0.073 µM
IC50 ([2]; 50 ng/ml h-SCF): 0.322 µM

COc1cc2nccc(Oc3ccc(NC(=O)Oc4ccc(C(C)(C)C)cc4)cc3)c2cc1OC [Example 259, 4-(Tert-butyl)phenyl N-{4-[(6,7-dimethoxy-4-quinolyl)oxy]phenyl}carbamate]
IC50 ([1]; Pharmacological Test Example 1): 0.034 µM
IC50 ([2]; h-SCF 50 ng/ml): 0.184 µM

COc1cc2ncnc(Oc3ccc(NC(=O)OCCCSc4ccc(C(C)(C)C)cc4)c(Cl)c3)c2cc1OC [Example 76, 3-{[4-(Tert-butyl)phenyl]sulfanyl}propyl N-{2-chloro-4-[(6,7-dimethoxy-4-quinazolinyl)oxy]phenyl}carbamate]
inhibition at 0.1 µM [1]: 37%
IC50 ([1]; Pharmacological Test Example 1): > 0.1 µM
inhibition at 1 µM [2]: 14%

COc1ccccc1CCC(=O)NC(=S)Nc1ccc(Oc2ccnc3cc(OC)c(OC)cc23)cc1 [Example 1025, N-{4-[(6,7-Dimethoxy-4-quinolyl)oxy]phenyl}-N′-[3-(2-methoxyphenyl)propanoyl]thiourea]
IC50 [1]: 0.015 µM
IC50 ([2]; h-SCF stimulation): 0.194 µM

COc1cc2nccc(Oc3ccc(NC(=S)NCCCn4ccnc4)c(C)c3C)c2cc1OC [Example 543]
IC50 [1]: 0.054 µM
IC50 ([2]; 50 ng/ml h-SCF): 0.328 µM

COc1cc2nccc(Oc3ccc(NC(=O)Oc4ccc(-c5ccccc5)cc4)c(C)c3C)c2cc1OC [Example 296, 4-Phenylphenyl N-{4-[(6,7-dimethoxy-4-quinolyl)oxy]-2,3-dimethylphenyl}carbamate]
IC50 ([1]; Pharmacological Test Example 1): 0.061 µM
IC50 ([2]; h-SCF 50 ng/ml): 0.109 µM

COc1cc2ncnc(Oc3ccc(NC(=O)NC4CCN(Cc5ccccc5)CC4)cc3)c2cc1OC [Example 636, N-(1-Benzyl-4-piperidyl)-N′-{4-[(6,7-dimethoxy-4-quinazolinyl)oxy]phenyl}urea]
IC50 [1]: 0.033 µM
IC50 ([2]; 50 ng/ml h-SCF): 0.106 µM

COc1cc2nccc(Oc3ccc(NC(=S)NC(=O)c4ccccc4I)c(F)c3)c2cc1OC [Example 908, N-{4-[(6,7-Dimethoxy-4-quinolyl)oxy]-2-fluorophenyl}-N′-(2-iodobenzoyl)thiourea]
IC50 [1]: 0.009 µM
IC50 ([2]; h-SCF stimulation): 0.757 µM

CCCCc1ccc(OC(=O)Nc2cc(C)c(Oc3ccnc4cc(OC)c(OC)cc34)cc2C)cc1 [Example 272, 4-Butylphenyl N-{4-[(6,7-dimethoxy-4-quinolyl)oxy]-2,5-dimethylphenyl}carbamate]
IC50 ([1]; Pharmacological Test Example 1): 0.061 µM
IC50 ([2]; h-SCF 50 ng/ml): 0.297 µM

COc1cc2nccc(Oc3cc(C)c(NC(=O)OCCCSc4ccc(C)cc4)cc3C)c2cc1OC [Example 39, 3-[(4-Methylphenyl)sulfanyl)propyl N-{4-[(6,7-dimethoxy-4-quinolyl)oxy]-2,5-dimethylphenyl}-carbamate]
IC50 ([1]; Pharmacological Test Example 1): < 0.01 µM
IC50 ([2]; h-SCF 50 ng/ml): 0.056 µM

COc1cc2nccc(Oc3ccc(NC(=S)NC(=O)c4ccccc4C(F)(F)F)cc3F)c2cc1OC [Example 917, N-{4-[(6,7-Dimethoxy-4-quinolyl)oxy]-3-fluorophenyl}-N′-[2-(trifluoromethyl)benzoyl]thiourea]
IC50 [1]: 0.132 µM
IC50 ([2]; h-SCF stimulation): 0.546 µM

COc1cc2nccc(Oc3ccc(NC(=S)NC(=O)CCSC)cc3Cl)c2cc1OC [Example 697, N-{3-Chloro-4-[(6,7-dimethoxy-4-quinolyl)oxy]phenyl}-N′-[3-(methylthio)propanoyl]thiourea]
IC50 [1]: < 0.01 µM
IC50 ([2]; 50 ng/ml h-SCF): 0.211 µM

COc1cccc(C(C)OC(=O)Nc2ccc(Oc3ncnc4cc(OC)c(OC)cc34)cc2)c1 (centres unmarked) [Example 55, 1-(3-Methoxyphenyl)ethyl N-{4-[(6,7-dimethoxy-4-quinazolinyl)oxy]phenyl}carbamate]
IC50 ([1]; Pharmacological Test Example 1): < 0.01 µM
IC50 ([2]; h-SCF 50 ng/ml): 0.288 µM

COc1cc2nccc(Oc3ccc(NC(=O)OC(C)c4ccccc4F)c(C)c3C)c2cc1OC (centres unmarked) [Example 123, 1-(2-Fluorophenyl)ethyl N-{4-[(6,7-dimethoxy-4-quinolyl)oxy]-2,3-dimethylphenyl}carbamate]
IC50 ([1]; Pharmacological Test Example 1): < 0.01 µM
IC50 ([2]; h-SCF 50 ng/ml): 0.207 µM

COc1cc2ncnc(Oc3ccc(NC(=O)OC(C)c4ccc(C)cc4)c(Cl)c3)c2cc1OC (centres unmarked) [Example 136, 1-(4-Methylphenyl)ethyl N-{2-chloro-4-[(6,7-dimethoxy-4-quinazolinyl)oxy]phenyl}carbamate]
IC50 ([1]; Pharmacological Test Example 1): 0.043 µM
inhibition at 1 µM [2]: 7%

COc1cc2nccc(Oc3cc(C)c(NC(=O)OC(C)c4ccccc4F)cc3C)c2cc1OC (centres unmarked) [Example 124, 1-(2-Fluorophenyl)ethyl N-{4-[(6,7-dimethoxy-4-quinolyl)oxy]-2,5-dimethylphenyl}carbamate]
IC50 ([1]; Pharmacological Test Example 1): 0.042 µM
inhibition at 1 µM [2]: 39%

COc1cc2nccc(Oc3ccc(NC(=O)OCCCOc4ccc(F)cc4)c(C)c3C)c2cc1OC [Example 153, 3-(4-Fluorophenoxy)propyl N-{4-[(6,7-dimethoxy-4-quinolyl)oxy]-2,3-dimethylphenyl}carbamate]
IC50 ([1]; Pharmacological Test Example 1): < 0.01 µM
IC50 ([2]; h-SCF 50 ng/ml): < 0.03 µM

COc1cc2ncnc(Oc3ccc(NC(=O)OCCCSc4cc(C)ccc4C)cc3)c2cc1OC [Example 172, 3-[(2,5-Dimethylphenyl)sulfanyl]-propyl N-{4-[(6,7-dimethoxy-4-quinazolinyl)oxy]phenyl}carbamate]
IC50 ([1]; Pharmacological Test Example 1): 0.017 µM
IC50 ([2]; h-SCF 50 ng/ml): 0.074 µM

COc1ccc(OCCCOC(=O)Nc2ccc(Oc3ccnc4cc(OC)c(OC)cc34)cc2)cc1 [Example 42, 3-(4-Methoxyphenoxy)propyl N-{4-[(6,7-dimethoxy-4-quinolyl)oxy]phenyl}carbamate]
IC50 ([1]; Pharmacological Test Example 1): < 0.01 µM
IC50 ([2]; h-SCF 50 ng/ml): 0.073 µM

COc1cc2nccc(Oc3cc(C)c(NCCCOc4ccccc4C)cc3C)c2cc1OC [Example 889, N-{4-[(6,7-Dimethoxy-4-quinolyl)oxy]-2,5-dimethylphenyl}-N-[3-(2-methylphenoxy)propyl]amine]
IC50 [1]: > 0.1 µM
inhibition at 0.1 µM [1]: 30%
inhibition at 1 µM [2]: 28%

COc1cc2ncnc(Oc3ccc(NC(=O)OCCCOc4ccc(Cl)cc4)c(C)c3C)c2cc1OC [Example 213, 3-(4-Chlorophenoxy)propyl N-{4-[(6,7-dimethoxy-4-quinazolinyl)oxy]-2,3-dimethylphenyl}-carbamate]
IC50 ([1]; Pharmacological Test Example 1): 0.021 µM
IC50 ([2]; h-SCF 50 ng/ml): 0.061 µM

COc1cc2ncnc(Oc3ccc(NC(=O)N[C@@H]4CCN(Cc5ccccc5)C4)c(Cl)c3)c2cc1OC [Example 575, N-[(3R)-1-Benzyltetrahydro-1H-3-pyrrolyl]-N′-{2-chloro-4-[(6,7-dimethoxy-4-quinazolinyl)oxy]phenyl}urea]
IC50 [1]: 0.027 µM
IC50 ([2]; 50 ng/ml h-SCF): 0.664 µM

COc1cc(Oc2ncnc3cc(OC)c(OC)cc23)ccc1NC(=O)OCCc1ccccn1 [Example 501, 2-(2-Pyridyl)ethyl N-{4-[(6,7-dimethoxy-4-quinazolinyl)oxy]-2-methoxyphenyl}carbamate]
IC50 [1]: 0.011 µM
IC50 ([2]; 50 ng/ml h-SCF): 0.056 µM

COc1ccc(OCCCOC(=O)Nc2ccc(Oc3ccnc4cc(OC)c(OC)cc34)c(C)c2C)cc1 [Example 43, 3-(4-Methoxyphenoxy)propyl N-{4-[(6,7-dimethoxy-4-quinolyl)oxy]-2,3-dimethylphenyl}carbamate]
IC50 ([1]; Pharmacological Test Example 1): < 0.01 µM
IC50 ([2]; h-SCF 50 ng/ml): 0.158 µM

COc1cc2nccc(Oc3cc(C)c(NC(=O)OCc4ccc(Cl)cc4)cc3C)c2cc1OC [Example 243, 4-Chlorobenzyl N-{4-[(6,7-dimethoxy-4-quinolyl)oxy]-2,5-dimethylphenyl}carbamate]
IC50 ([1]; Pharmacological Test Example 1): 0.02 µM
IC50 ([2]; h-SCF 50 ng/ml): 0.19 µM

COc1cc2nccc(Oc3ccc(NCCOc4ccccc4OC)cc3C)c2cc1OC [Example 880, N-{4-[(6,7-Dimethoxy-4-quinolyl)oxy]-3-methylphenyl}-N-[2-(2-methoxyphenoxy)ethyl]amine]
IC50 [1]: 0.016 µM
IC50 ([2]; h-SCF stimulation): 0.149 µM

CCOc1ccccc1C(C)OC(=O)Nc1cc(C)c(Oc2ccnc3cc(OC)c(OC)cc23)cc1C (centres unmarked) [Example 129, 1-(2-Ethoxyphenyl)-ethyl N-{4-[(6,7-dimethoxy-4-quinolyl)oxy]-2,5-dimethylphenyl}carbamate]
IC50 ([1]; Pharmacological Test Example 1): 0.064 µM
IC50 ([2]; h-SCF 50 ng/ml): 0.732 µM
